Experiments:
[1] = test system: ApoE-knockout mice; assay type: in vivo, mouse; settings: Western Diet with Sulindac (300 mg/kg) for 17 weeks, examined four weeks after injury; vs control group
From the text: We have developed a new mouse model of studying restenosis, in which the injury of the femoral artery is accomplished by the manipulation of wire stent which is introduced into the femoral artery first and then removed.
Briefly, the mouse is anesthetized with pentobarbital and the femoral artery is exposed by cutting the skin in the femoral region carefully. An angioplastz guide wire obtained from Advanced Cardiovascular Systems, Tameaila, Calif. of approximately 100 mm in length and 0.25 mm in diameter is then carefully inserted into the femoral artery, gently manipulated to simulate the arterial revascularization procedures used in humans, and removed. The bleeding is stopped by ligation. The skin fold is restored by sutures.
By one month after injury maximum restenosis is measured is achieved. The degree of restenosis is measured by two indices, the intima/media (I/M) ratio and the percentage of lumenal narrowing. […]
Thirty six week old ApoE-knockout mice were used and given the following dietary regimen and treatment: Group 1-western type diet (containing 42% by calories % fat and 0.15% (w/w) cholesterol); Group 2-western type diet plus aspirin at a concentration of 300 mg/kg diet/day and Group 3-western type diet plus Sulindac at a concentration of 300 mg/kg diet/day. […] The body weight was monitored on a weekly basis. […]

[2] = test system: ApoE-deficient mice; test: Atherosclerotic lesions and plasma cholesterol in ApoE-deficient mice on western diet; assay type: in vivo, mouse; settings: ApoE-deficient mice maintained on a western diet
From the text: The Apo-E deficient mouse is the first mouse model of atherosclerosis with pathology similar to that of human atherosclerosis (Cell 1992, 71:343-353). Serum cholesterol levels in the mice maintained on a chow diet are five times higher than those of control littermates. Apo-E, which is made primarily in the liver, is a surface constituent of lipoprotein particles and a ligand for lipoprotein recognition and clearance by lipoprotein receptors (Science 1996, 272:685-688). ApoE-deficient mice have delayed clearance of lipoproteins, and on a low-cholesterol, low-fat diet, their cholesterol levels reach 400 to 600 mg/dl as a result of accumulation of chylomicron and very low-density lipoprotein (VLDL) remnants enriched in esterified and free cholesterol (Circulation 1993, 88:A9). These mice develop not only fatty streaks but also widespread fibrous plaque lesions at vascular sites typically affected in human atherosclerosis (Arterioscier. Thromb. 1994, 14;1873). Lesions form at the base of the aorta and the lesser curvature of the thoracic aorta, at the branch points of the carotid, intercostal, mesenteric, renal and iliac arteries, and in the proximal coronary, carotid, femoral, subclavian, and brachiocephalic arteries. Lesions begin at 5 to 6 weeks of age with monocyte attachment to the endothelium in lesion-prone areas and transendothelial migration. Fatty streak lesions begin to appear at 10 weeks, and intermediate lesions containing foam cells and spindle-shaped smooth muscle cells appear at 15 weeks. Fibrous plaques appear after 20 weeks and consist of a necrotic core covered by a fibrous cap of smooth muscle cells surrounded by elastic fibers and collagen. In older mice, fibrous plaques progress. In some advanced lesions there is partial destruction of underlying medial cells with occasional aneurysm formation, and in others calcification occurs in the fibrous tissue. Extensive fibro-proliferation can narrow the lumen, even to the point of occlusion of vessels.
Atherosclerosis can be exacerbated by a high-cholesterol or high-fat diet. This effect is mimicked in the ApoE-deficient mice when these mice are fed a western-type diet as described below in Section 6.
The Apolipoprotein E knock-out mouse model is a valuable animal model to test the effect of NSAIDs on apoptosis, proliferation, quiescence, migration and differentiation of cells that contribute to atherosclerosis. ApoE is an apoprotein on the surface of atherogenic lipoproteins that serves as a ligand for certain receptors in key tissues. ApoE-induced signaling via these receptors, particularly by the hepatic LDL receptor, induces the removal of ApoE-containing lipoprotein particles from the plasma. […]

[3] = test system: HT-29 human colon adenocarcinoma cells; settings: cited from earlier work
[4] = test system: HCT-15 cultured colon cancer cell line; settings: Biochem. Pharmacol. 1996, 52:237-245; cited from earlier work
[5] = test system: cyclooxygenase; settings: Adv. Drug Res. 1977, 12:90-245; cited from earlier work

Compound	arterial narrowing after mechanical arterial injury [1]	smooth muscle cell proliferation after mechanical arterial injury [1]	development of atherosclerotic lesion / atherosclerotic index [2]	level of cholesterol in the plasma [2]	morphology of HT-29 cells [3]	proliferation of HT-29 cells [3]	antiproliferative effect [4]	inhibition of cyclooxygenase [5]
CC1=C(CC(=O)O)c2cc(F)ccc2/C1=C\c1ccc([S+](C)[O-])cc1 (stereo not drawn) [Sulindac]	narrowing of the artery was not as marked	much less proliferation of smooth muscle cells	significantly inhibited	reduced the level of cholesterol in the plasma	altered morphology	reduced proliferation	antiproliferative effect independent of prostaglandin synthesis	
CC(=O)Oc1ccccc1C(=O)O [aspirin]			inhibited the atherosclerotic index but to a lesser extent than observed in the group treated with Sulindac	reduced the level of cholesterol in the plasma	altered morphology	reduced proliferation		
COc1ccc2c(c1)c(CC(=O)O)c(C)n2C(=O)c1ccc(Cl)cc1 [indomethacin]					altered morphology	reduced proliferation		
CN1C(C(=O)Nc2ccccn2)=C(O)c2ccccc2S1(=O)=O [piroxicam]					altered morphology	reduced proliferation	antiproliferative effect independent of prostaglandin synthesis	
CSc1ccc(/C=C2/C(C)=C(CC(=O)O)c3cc(F)ccc32)cc1 [sulfide, Sulindac sulfide]								potent inhibitory agent of cyclooxygenase
CC1=C(CC(=O)O)c2cc(F)ccc2/C1=C\c1ccc(S(C)(=O)=O)cc1 [sulfone, Sulindac sulfone]								does not inhibit cyclooxygenase
